Experimental data published in US8962608B2, “Cycloalkylnitrile pyrazole carboxamides as janus kinase inhibitors” (Merck Sharp & Dohme Corp., priority 2011, dated 2015).
Counter-ions that a name gives are not always drawn.

Experiments:
[1] = biological target: JAK1 (recombinant purified GST-tagged catalytic domain) (Homo sapiens (Human), UniProt P23458); assay: biochemical;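 also: biochemical assay with HTRF read-out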
[2] = biological target: JAK2 (recombinant purified GST-tagged catalytic domain) (Homo sapiens (Human), UniProt O60674); assay: biochemical;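 also: biochemical JAK kinase assay with HTRF detection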
JAK2 (recombinant purified GST-tagged catalytic domain), sequence (O60674 849-1124): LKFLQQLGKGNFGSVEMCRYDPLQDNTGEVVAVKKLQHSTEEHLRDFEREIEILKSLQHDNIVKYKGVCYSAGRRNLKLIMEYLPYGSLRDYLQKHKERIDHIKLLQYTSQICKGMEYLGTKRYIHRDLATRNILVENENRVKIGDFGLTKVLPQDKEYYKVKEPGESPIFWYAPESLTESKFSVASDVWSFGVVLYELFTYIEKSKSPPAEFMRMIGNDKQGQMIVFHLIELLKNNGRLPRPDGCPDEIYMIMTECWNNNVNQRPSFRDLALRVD

JAK1 (recombinant purified GST-tagged catalytic domain), sequence (P23458 875-1153): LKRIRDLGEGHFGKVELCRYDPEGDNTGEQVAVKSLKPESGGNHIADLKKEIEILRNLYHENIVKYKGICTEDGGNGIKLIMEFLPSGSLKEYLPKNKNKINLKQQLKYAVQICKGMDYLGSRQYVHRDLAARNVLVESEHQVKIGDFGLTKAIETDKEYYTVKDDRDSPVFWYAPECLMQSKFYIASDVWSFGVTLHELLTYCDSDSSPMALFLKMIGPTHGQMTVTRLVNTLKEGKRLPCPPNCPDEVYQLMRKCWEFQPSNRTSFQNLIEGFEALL

Structure (SMILES)	IC50 [1]	IC50 [2]
N#C[C@H]1C[C@@H](N2CC(F)C2)CC[C@@H]1n1cc(C(N)=O)c(Nc2ccc(S(=O)(=O)C(F)(F)F)cc2)n1 (single isomer, unassigned) [Example 28-113, 1-[(1S,2S,4S or 1R,2R,4R)-2-cyano-4-(3-fluoroazetidin-1-yl)cyclohexyl]-3-({4-[(trifluoro-methyl)sulfonyl]phenyl}amino)-1H-pyrazole-4-carboxamide]	1 nM	13 nM
N#C[C@H]1CCCC[C@@H]1n1cc(C(N)=O)c(Nc2ccc(S(=O)(=O)Nc3ccc(C(F)(F)F)cc3)cc2)n1 (single isomer, unassigned) [Example 17-95, 1-[(1R,2R or 1S,2S)-2-cyanocyclohexyl]-3-[(4-{[4-(trifluoromethyl)phenyl]sulfamoyl}phenyl)amino]-1H-pyrazole-4-carboxamide]	6 nM	31 nM
CN(C)[C@@H]1CC[C@H](n2cc(C(N)=O)c(Nc3ccnc(F)c3)n2)[C@@H](C#N)C1 (single isomer, unassigned) [Example 28-127, 1-[(1S,2S,4R or 1R,2R,4S)-2-cyano-4-(dimethylamino)cyclohexyl]-3-[(2-fluoropyridin-4-yl)amino]-1H-pyrazole-4-carboxamide]	12 nM	254 nM
CN[C@H]1CCC(n2cc(C(N)=O)c(Nc3ccc(F)cc3)n2)[C@@H](C#N)C1 (mixture of isomers) [Example 27-4, 1-[(1S,2S,4S and 1R,2R,4R)-2-cyano-4-(methylamino)cyclohexyl]-3-[(4-fluorophenyl)amino]-1H-pyrazole-4-carboxamide]	1 nM	56 nM
N#C[C@H]1C[C@H](N2CCC2)CC[C@@H]1n1cc(C(N)=O)c(Nc2ccc(Cl)cc2)n1 (single isomer, unassigned) [Example 28-109, 1-[(1S,2S,4R or 1R,2R,4S)-4-azetidin-1-yl-2-cyanocyclohexyl]-3-[(4-chlorophenyl)amino]-1H-pyrazole-4-carboxamide]	2 nM	110 nM
N#C[C@H]1C[C@H](O)CC[C@@H]1n1cc(C(N)=O)c(Nc2ccc(Cl)c(Cl)c2)n1 (single isomer, unassigned) [Example 25-6, 1-[(1S,2S,4R or 1R,2R,4S)-2-cyano-4-hydroxycyclohexyl]-3-[(3,4-dichlorophenyl)amino]-1H-pyrazole-4-carboxamide]	3 nM	20 nM
N#C[C@H]1C[C@@H](N2CCC2)CC[C@@H]1n1cc(C(N)=O)c(Nc2ccc(OC(F)(F)F)cc2)n1 (single isomer, unassigned) [Example 28-58, 1-[(1S,2S,4S or 1R,2R,4R)-4-azetidin-1-yl-2-cyanocyclohexyl]-3-{[4-(trifluoromethoxy)phenyl]amino}-1H-pyrazole-4-carboxamide]	0.7 nM	23 nM
CN([C@H]1CC[C@H](n2cc(C(N)=O)c(Nc3ccc(Cl)cc3)n2)[C@@H](C#N)C1)S(C)(=O)=O (racemic) [Example 38-6, 3-[(4-chlorophenyl)amino]-1-{(1S,2S,4R and 1R,2R,4S)-2-cyano-4-[methyl(methylsulfonyl)amino]cyclohexyl}-1H-pyrazole-4-carboxamide]	1 nM	6 nM
CC1CN([C@H]2CC[C@H](n3cc(C(N)=O)c(Nc4ccc(Cl)cc4)n3)[C@@H](C#N)C2)C1 (single isomer, unassigned) [Example 28-96, 3-[(4-chlorophenyl)amino]-1-[(1S,2S,4S or 1R,2R,4R)-2-cyano-4-(3-methylazetidin-1-yl)cyclohexyl]-1H-pyrazole-4-carboxamide]	2 nM	85 nM
COCC(C)N(C)[C@H]1CCC(n2cc(C(N)=O)c(Nc3ccc(Cl)cc3)n2)[C@@H](C#N)C1 (single isomer, unassigned) [Example 28-240, 3-[(4-chlorophenyl)amino]-1-[(1S,2S,4S or 1R,2R,4R)-2-cyano-4-{[(1S or 1R)-2-methoxy-1-methylethyl](methyl)ami-no}cyclohexyl]-1H-pyrazole-4-carboxamide]	2 nM	27 nM
N#C[C@@H]1CC(CN)CCC1n1cc(C(N)=O)c(Nc2ccc(F)cc2)n1 (mixture of isomers) [Example 9, 1-((1R,2R and 1S,2S)-4-(Aminomethyl)-2-cyanocyclohexyl)-3-((4-fluorophenyl)amino)-1H-pyrazole-4-carboxamide]	12 nM	247 nM
CC(C)(C)N[C@@H]1CC[C@H](n2cc(C(N)=O)c(Nc3ccc([C@H](O)C(F)(F)F)cc3)n2)[C@@H](C#N)C1 (single isomer, unassigned) [Example 28-52, 1-[(1S,2S,4R or 1R,2R,4S)-4-(tert-butylamino)-2-cyanocyclohexyl]-3-({4-[(1S or 1R)-2,2,2-trifluoro-1-hydroxyethyl]phenyl}amino)-1H-pyrazole-4-carboxamide]	0.4 nM	23 nM
N#C[C@@H]1C[C@H](C(=O)NC2COC2)CC[C@H]1n1cc(C(N)=O)c(Nc2ccc(Cl)cc2)n1 (single isomer, unassigned) [Example 35-13, 3-[(4-chlorophenyl)amino]-1-[(1R,2R,4R or 1S,2S,4S)-2-cyano-4-(oxetan-3-ylcarbamoyl)cyclohexyl]-1H-pyrazole-4-carboxamide]	5 nM	38 nM
CN[C@@H]1CCC(n2cc(C(N)=O)c(Nc3ccc(F)cc3)n2)[C@@H](C#N)C1 (mixture of isomers) [Example 27-3, 1-[(1S,2S,4R and 1R,2R,4S)-2-cyano-4-(methylamino)cyclohexyl]-3-[(4-fluorophenyl)amino]-1H-pyrazole-4-carboxamide]	0.8 nM	25 nM
CC1(O)CN([C@H]2CC[C@H](n3cc(C(N)=O)c(Nc4ccc(C(F)(F)F)cc4)n3)[C@@H](C#N)C2)C1 (single isomer, unassigned) [Example 28-198, 1-[(1S,2S,4S or 1R,2R,4R)-2-cyano-4-(3-hydroxy-3-methylazetidin-1-yl)cyclohexyl]-3-{[4-(trifluoromethyl)phenyl]amino}-1H-pyrazole-4-carboxamide]	0.15 nM	3 nM
N#C[C@H]1C[C@@H](N)CCC1n1cc(C(N)=O)c(Nc2ccc(F)cc2)n1 (mixture of isomers) [Example 29, (1S,3S,4S and 1R,3R,4R)-4-{4-Carbamoyl-3-[(4-fluorophenyl)amino]-1H-pyrazol-1-yl}-3-cyanocyclohexanaminium trifluoroacetate]	1 nM	35 nM
N#C[C@H]1C[C@H](O)CC[C@@H]1n1cc(C(N)=O)c(Nc2ccccc2)n1 (single isomer, unassigned) [Example 25-29, 1-[(1S,2S,4R or 1R,2R,4S)-2-cyano-4-hydroxycyclohexyl]-3-(phenylamino)-1H-pyrazole-4-carboxamide]	2 nM	26 nM
N#C[C@H]1CCCC[C@@H]1n1cc(C(N)=O)c(Nc2ccc(Cl)cc2)n1 (single isomer, unassigned) [Example 17-107, 3-[(4-chlorophenyl)amino]-1-[(1S,2S or 1R,2R)-2-cyanocyclohexyl]-1H-pyrazole-4-carboxamide]	0.95 nM	11 nM
CS(=O)(=O)c1ccc(Nc2nn([C@H]3CC[C@@H](O)C[C@@H]3C#N)cc2C(N)=O)cc1 (single isomer, unassigned) [Example 25-28, 1-[(1S,2S,4R or 1R,2R,4S)-2-cyano-4-hydroxycyclohexyl]-3-{[4-(methylsulfonyl)phenyl]amino}-1H-pyrazole-4-carboxamide]	0.1 nM	3 nM
